The record followed here is ChEMBL document CHEMBL5550160, “Leveraging a rationally designed veliparib-based anilide eliciting anti-leukemic effects for the design of pH-responsive polymer nanoformulation” (Eur J Med Chem, 2024).

The target of one experiment is Histone deacetylase 3 (Homo sapiens, UniProt O15379). Put plainly: Inhibition of HDAC3 (unknown origin) using p53 residues 379 to 382 [RHKK(Ac)] as fluorogenic substrate assessed as residual activity at 5.08 x 10^-10M (reference value: 103.08%). Conditions: dose 5.08 10^-10M.
Histone deacetylase 3, sequence (O15379 whole entry, the tested form may be a part): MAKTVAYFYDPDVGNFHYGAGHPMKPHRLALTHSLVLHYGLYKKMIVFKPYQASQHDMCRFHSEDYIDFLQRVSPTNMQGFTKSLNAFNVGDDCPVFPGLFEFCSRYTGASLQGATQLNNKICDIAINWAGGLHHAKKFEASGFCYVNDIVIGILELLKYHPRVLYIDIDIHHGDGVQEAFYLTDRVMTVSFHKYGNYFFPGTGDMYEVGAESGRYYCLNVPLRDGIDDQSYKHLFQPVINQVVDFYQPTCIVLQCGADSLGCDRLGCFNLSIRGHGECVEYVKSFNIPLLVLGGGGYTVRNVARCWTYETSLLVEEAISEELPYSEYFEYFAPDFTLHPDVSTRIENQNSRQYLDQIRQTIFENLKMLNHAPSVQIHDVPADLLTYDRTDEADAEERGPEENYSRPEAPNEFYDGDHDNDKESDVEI
The target of experiment [1] is T1, Histone deacetylase 7 (Homo sapiens) (UniProt Q8WUI4).
T1 sequence (whole entry): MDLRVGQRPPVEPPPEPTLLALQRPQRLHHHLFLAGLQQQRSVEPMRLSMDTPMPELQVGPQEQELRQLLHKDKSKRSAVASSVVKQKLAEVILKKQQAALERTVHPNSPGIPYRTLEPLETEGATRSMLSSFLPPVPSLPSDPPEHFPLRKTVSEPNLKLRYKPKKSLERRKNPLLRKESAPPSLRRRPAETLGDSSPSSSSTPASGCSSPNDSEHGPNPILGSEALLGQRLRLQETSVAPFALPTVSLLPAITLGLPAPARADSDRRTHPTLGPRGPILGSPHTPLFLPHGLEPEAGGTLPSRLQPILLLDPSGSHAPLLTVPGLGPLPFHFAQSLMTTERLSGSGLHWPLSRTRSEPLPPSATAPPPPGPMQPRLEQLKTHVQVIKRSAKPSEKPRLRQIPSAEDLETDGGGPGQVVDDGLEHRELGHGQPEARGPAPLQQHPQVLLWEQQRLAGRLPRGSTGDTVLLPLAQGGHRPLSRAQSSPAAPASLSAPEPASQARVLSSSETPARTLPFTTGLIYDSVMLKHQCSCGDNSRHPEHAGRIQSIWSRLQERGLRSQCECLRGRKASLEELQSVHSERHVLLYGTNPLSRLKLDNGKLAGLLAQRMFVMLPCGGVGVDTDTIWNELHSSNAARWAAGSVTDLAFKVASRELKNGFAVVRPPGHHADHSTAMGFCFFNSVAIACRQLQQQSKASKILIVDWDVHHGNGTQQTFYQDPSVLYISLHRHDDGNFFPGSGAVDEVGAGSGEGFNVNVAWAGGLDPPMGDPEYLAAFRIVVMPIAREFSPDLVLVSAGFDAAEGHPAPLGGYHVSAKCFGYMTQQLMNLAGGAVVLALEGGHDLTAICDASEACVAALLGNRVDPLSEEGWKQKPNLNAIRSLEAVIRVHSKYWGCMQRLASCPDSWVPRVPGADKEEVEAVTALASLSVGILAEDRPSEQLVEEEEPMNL
Put plainly: Inhibition of HDAC7 (unknown origin) assessed as residual activity at 1.37 x 10^-8M (reference value: 102.66%). Conditions: dose 1.37 10^-8M.

For experiment [2], the target named is T2, Protein deacetylase HDAC6 (Homo sapiens) (UniProt Q9UBN7).
T2 sequence (whole entry): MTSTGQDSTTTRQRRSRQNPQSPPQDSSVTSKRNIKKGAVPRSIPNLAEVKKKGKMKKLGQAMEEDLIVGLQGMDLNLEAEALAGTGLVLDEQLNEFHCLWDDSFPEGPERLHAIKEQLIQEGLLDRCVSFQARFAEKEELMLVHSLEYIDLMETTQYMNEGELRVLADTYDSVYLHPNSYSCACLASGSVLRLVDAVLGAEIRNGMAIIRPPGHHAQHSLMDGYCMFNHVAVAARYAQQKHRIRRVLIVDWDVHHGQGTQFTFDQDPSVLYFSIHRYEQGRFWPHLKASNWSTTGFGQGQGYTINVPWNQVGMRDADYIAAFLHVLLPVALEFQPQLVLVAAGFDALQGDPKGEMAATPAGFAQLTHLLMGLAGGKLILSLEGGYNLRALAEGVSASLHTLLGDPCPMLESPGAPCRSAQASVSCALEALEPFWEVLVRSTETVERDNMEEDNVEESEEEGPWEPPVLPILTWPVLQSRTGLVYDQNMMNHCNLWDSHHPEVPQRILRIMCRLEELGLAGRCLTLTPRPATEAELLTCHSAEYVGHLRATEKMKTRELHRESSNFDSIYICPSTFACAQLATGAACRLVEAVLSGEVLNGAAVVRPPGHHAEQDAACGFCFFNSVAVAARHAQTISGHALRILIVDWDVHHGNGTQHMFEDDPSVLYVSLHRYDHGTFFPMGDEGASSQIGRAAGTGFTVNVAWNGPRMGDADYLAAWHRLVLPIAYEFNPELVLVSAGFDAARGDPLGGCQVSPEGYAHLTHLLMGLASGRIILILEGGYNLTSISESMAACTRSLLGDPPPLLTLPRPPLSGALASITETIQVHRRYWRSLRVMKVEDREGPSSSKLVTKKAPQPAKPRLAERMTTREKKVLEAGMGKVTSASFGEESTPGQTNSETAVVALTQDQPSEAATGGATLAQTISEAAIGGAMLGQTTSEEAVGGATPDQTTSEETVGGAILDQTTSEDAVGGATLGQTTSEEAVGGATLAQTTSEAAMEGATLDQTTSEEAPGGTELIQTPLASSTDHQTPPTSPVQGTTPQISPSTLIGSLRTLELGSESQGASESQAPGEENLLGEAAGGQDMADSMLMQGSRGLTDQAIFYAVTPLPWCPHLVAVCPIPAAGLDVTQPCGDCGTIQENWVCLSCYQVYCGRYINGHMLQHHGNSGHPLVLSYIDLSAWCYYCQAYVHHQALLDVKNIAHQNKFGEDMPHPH
Put plainly: Inhibition of HDAC6 (unknown origin) using p53 residues 379 to 382 [RHKK(Ac)] as fluorogenic substrate assessed as residual activity at 1 x 10^-5M (reference value: 101.06%). Conditions: dose 1.0 10^-5M.

Experiment [3] addresses T3, Polyamine deacetylase HDAC10 (Homo sapiens) (UniProt Q969S8).
T3 sequence (whole entry): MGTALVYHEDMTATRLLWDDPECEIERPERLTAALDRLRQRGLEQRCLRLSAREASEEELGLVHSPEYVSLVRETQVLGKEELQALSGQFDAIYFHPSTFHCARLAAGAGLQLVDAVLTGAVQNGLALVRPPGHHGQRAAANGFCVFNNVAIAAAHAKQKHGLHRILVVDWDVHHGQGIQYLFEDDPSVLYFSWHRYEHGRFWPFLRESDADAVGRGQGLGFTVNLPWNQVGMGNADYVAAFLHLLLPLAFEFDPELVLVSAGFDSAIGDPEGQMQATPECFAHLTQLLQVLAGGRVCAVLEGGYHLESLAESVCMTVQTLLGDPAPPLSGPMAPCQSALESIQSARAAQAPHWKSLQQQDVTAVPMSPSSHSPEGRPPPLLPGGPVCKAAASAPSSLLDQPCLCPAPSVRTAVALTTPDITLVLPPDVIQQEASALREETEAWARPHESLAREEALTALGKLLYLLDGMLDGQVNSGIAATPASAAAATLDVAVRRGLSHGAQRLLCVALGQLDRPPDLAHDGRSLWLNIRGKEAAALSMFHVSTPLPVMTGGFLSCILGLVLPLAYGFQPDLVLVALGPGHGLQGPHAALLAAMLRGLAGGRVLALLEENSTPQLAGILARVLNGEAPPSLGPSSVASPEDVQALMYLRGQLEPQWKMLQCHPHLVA
The experiment in a line: Inhibition of HDAC10 (unknown origin) assessed as residual activity at 5.08 x 10^-10M (reference value: 101.54%). The following applies: dose 5.08 10^-10M.

Molecules are shown by their SMILES.

Turning to `NC(=O)c1cccc2[nH]c(-c3ccc(NCc4ccc(C(=O)Nc5ccccc5N)cc4)cc3)nc12`, the Activity on Histone deacetylase 3 is 107%; in experiment [1], 103%; in experiment [2], 107%; in experiment [3], 101%.
